From patent US20240383955A1, “MODIFIED ANTIMICROBIAL PEPTIDES” (priority 2021, published 2024)
Converted amounts (≈) assume the structure as drawn. Bridge positions count the residues as written; N and C are the ends. Square brackets hold non-standard residues; d marks the D form. Ends that are not written are not given here. Peptide text beside a SMILES is read from it. Dab = NCC[C@H](N)C(=O)O

Tests used:
B. cinerea [1] = experiment: Semi-in planta drop inoculation assay on detached leaves of N. benthamiana, gray mold symptoms; format: in vivo, B. cinerea on N. benthamiana; settings: 48 h; for effectiveness in reducing gray mold disease symptoms: peptide tested at 1.5 μM, 3 μM and 6 μM
Botrytis cinerea = settings: Table 18
B. cinerea [2] = experiment: In vitro antifungal activity (MIC) in SFM culture media, with or without added salts; settings: SFM + 2 mM CaCl2; Table 10

Compound: CC[C@H](C)[C@H](NC(=O)[C@H](CCCNC(=N)N)NC(=O)[C@H](CS)NC(=O)[C@H](CCCNC(=N)N)NC(=O)CNC(=O)[C@@H](N)CO)C(=O)N[C@@H](CC(C)C)C(=O)N[C@@H](Cc1ccccc1)C(=O)N[C@@H](CCCNC(=N)N)C(=O)N[C@@H](CS)C(=O)N[C@@H](Cc1ccccc1)C(=O)N[C@@H](CS)C(=O)N[C@H](C(=O)N[C@@H](CCCCN)C(=O)N[C@@H](CC(N)=O)C(=O)N[C@@H](CS)C(N)=O)[C@@H](C)O [GMA1C_V1] (H-SGRCRILFRCFCTKNC-NH2; N-terminus assumed)
- gray mold symptoms (B. cinerea [1]): failed to reduce disease symptoms

Compound: CC[C@H](C)[C@@H]1NC(=O)[C@H](CCCNC(=N)N)NC(=O)[C@@H](NC(=O)[C@H](CCCNC(=N)N)NC(=O)CNC(=O)[C@@H](N)CO)CSSC[C@@H](C(N)=O)NC(=O)[C@H](CC(N)=O)NC(=O)[C@H](CCCCN)NC(=O)[C@H]([C@@H](C)O)NC(=O)[C@H](Cc2c[nH]c3ccccc23)NC(=O)[C@H](Cc2ccccc2)NC(=O)[C@H](Cc2c[nH]c3ccccc23)NC(=O)[C@H](CCCNC(=N)N)NC(=O)[C@H](Cc2ccccc2)NC(=O)[C@H](CC(C)C)NC1=O [GMA1C_V2] (H-SGRCRILFRWFWTKNC-NH2; disulfide 4-16)
- reducing the symptoms of gray mold, comparison of peptides (B. cinerea [1]; peptide at 1.5 μM): more effective than GMA1C_V1
- gray mold symptoms (B. cinerea [1]; peptide at 3 μM and 6 μM): completely abrogated gray mold symptoms
- MIC (SFM + 2 mM CaCl2) (Botrytis cinerea): 3 µM
- MIC (SFM + 100 mM KCl) (Botrytis cinerea): >12 µM
- MIC (SFM + 100 mM NaCl) (Botrytis cinerea): 3 µM
- MIC SFM (Botrytis cinerea): 1.5 to 3 µM

Compound: CC[C@H](C)[C@@H]1NC(=O)[C@H](CCCNC(=N)N)NC(=O)[C@@H](NC(=O)[C@H](CCCNC(=N)N)NC(=O)CNC(=O)[C@@H](N)CO)CSSC[C@@H](C(N)=O)NC(=O)[C@H](CC(N)=O)NC(=O)[C@H](CCCCN)NC(=O)[C@H]([C@@H](C)O)NC(=O)[C@H](Cc2ccccc2)NC(=O)[C@H](Cc2ccc(O)cc2)NC(=O)[C@H](Cc2c[nH]c3ccccc23)NC(=O)[C@H](CCCNC(=N)N)NC(=O)[C@H](Cc2ccccc2)NC(=O)[C@H](CC(C)C)NC1=O [GMA1C_V3] (H-SGRCRILFRWYFTKNC-NH2; disulfide 4-16)
- MIC (SFM + 2 mM CaCl2) (Botrytis cinerea): 6 µM
- MIC (SFM + 100 mM KCl) (Botrytis cinerea): >12 µM
- MIC (SFM + 100 mM NaCl) (Botrytis cinerea): 3 µM
- MIC SFM (Botrytis cinerea): 1.5 µM (≈ 3.07 µg/mL)

Compound: C[C@@H](O)[C@H](NC(=O)[C@H](CS)NC(=O)[C@H](Cc1ccccc1)NC(=O)[C@H](CS)NC(=O)[C@H](CCCNC(=N)N)NC(=O)[C@H](CCCNC(=N)N)NC(=O)[C@H](CCCNC(=N)N)NC(=O)[C@H](Cc1ccccc1)NC(=O)CNC(=O)[C@H](CCCNC(=N)N)NC(=O)[C@H](CS)NC(=O)[C@H](CCCNC(=N)N)NC(=O)CN)C(=O)N[C@H](C(=O)N[C@@H](Cc1c[nH]cn1)C(=O)N[C@@H](CS)C(=O)O)[C@@H](C)O [GMA4AC] (H-GRCRGFRRRCFCTTHC-OH; N-terminus and C-terminus assumed)
- MIC Fusarium graminearum (F. graminearum): 6 µM (≈ 11.8 µg/mL)

Compound: NCC[C@H](NC(=O)CNC(=O)[C@@H](N)Cc1ccccc1)C(=O)N[C@@H](CS)C(=O)N[C@@H](CCN)C(=O)NCC(=O)N[C@@H](Cc1ccccc1)C(=O)N[C@@H](CCN)C(=O)N[C@@H](CCN)C(=O)N[C@@H](CCN)C(=O)N[C@@H](CS)C(=O)N[C@@H](Cc1ccccc1)C(=O)N[C@@H](CS)C(=O)N[C@@H](Cc1c[nH]c2ccccc12)C(=O)N[C@@H](CCN)C(=O)N[C@@H](Cc1c[nH]c2ccccc12)C(=O)N[C@@H](CS)C(=O)O [GMA4C_V5, FG(Dab)C(Dab)GF(Dab)(Dab)(Dab)CFCW(Dab)WC] (H-FG[Dab]C[Dab]GF[Dab][Dab][Dab]CFCW[Dab]WC-OH; N-terminus assumed)
- SFM + 2 mM CaCl2 MIC (B. cinerea [2]): >6 (very μM

Compound: CC[C@H](C)[C@@H]1NC(=O)[C@H](CCCNC(=N)N)NC(=O)[C@H]([C@@H](C)O)NC(=O)[C@H](Cc2ccccc2)NC(=O)[C@H](Cc2c[nH]c3ccccc23)NC(=O)[C@H](Cc2ccccc2)NC(=O)[C@H](CCCNC(=N)N)NC(=O)[C@H](CCCNC(=N)N)NC(=O)[C@H](CC(C)C)NC(=O)[C@H](Cc2ccccc2)NC(=O)CNC(=O)[C@H](CCCCN)NC(=O)[C@@H](NC(=O)[C@H](CCCNC(=N)N)NC(=O)CNC(=O)CN)CSSC[C@@H](C(N)=O)NC1=O [GMA4C_V9] (H-GGRCKGFLRRFWFTRIC-NH2; disulfide 4-17)
- effectiveness in reducing gray mold disease symptoms (B. cinerea [1]): effective in reducing gray mold disease symptoms
- MIC (SFM + 2 mM CaCl2) (Botrytis cinerea): 12 µM
- MIC (SFM + 100 mM KCl) (Botrytis cinerea): 6 to 12 µM
- MIC (SFM + 100 mM NaCl) (Botrytis cinerea): 3 µM
- MIC SFM (Botrytis cinerea): 3 µM (≈ 6.3 µg/mL)

Compound: CC[C@H](C)[C@@H]1NC(=O)[C@H](CCCNC(=N)N)NC(=O)[C@H]([C@@H](C)O)NC(=O)[C@H](Cc2c[nH]c3ccccc23)NC(=O)[C@H](Cc2ccc(O)cc2)NC(=O)[C@H](Cc2c[nH]c3ccccc23)NC(=O)[C@H](CCCNC(=N)N)NC(=O)[C@H](CCCNC(=N)N)NC(=O)[C@H](CCCNC(=N)N)NC(=O)[C@H](Cc2ccccc2)NC(=O)CNC(=O)[C@H](CCCCN)NC(=O)[C@@H](NC(=O)[C@H](CCCNC(=N)N)NC(=O)CNC(=O)CN)CSSC[C@@H](C(N)=O)NC1=O [GMA4C_V10] (H-GGRCKGFRRRWYWTRIC-NH2; disulfide 4-17; N-terminus assumed)
- reducing the symptoms of gray mold, comparison of peptides (B. cinerea [1]; peptide at 1.5 μM and 3 μM): more effective in reducing the symptoms of gray mold than GMA4C_V9
- gray mold symptoms (B. cinerea [1]; peptide at 6 μM): completely abrogates gray mold symptoms
- effectiveness in reducing gray mold disease symptoms (B. cinerea [1]): effective in reducing gray mold disease symptoms
- MIC (SFM + 2 mM CaCl2) (Botrytis cinerea): 3 µM
- MIC (SFM + 100 mM KCl) (Botrytis cinerea): 3 to 6 µM
- MIC (SFM + 100 mM NaCl) (Botrytis cinerea): 3 µM
- MIC SFM (Botrytis cinerea): 3 µM (≈ 6.6 µg/mL)

Compound: C[C@H](NC(=O)CN)C(=O)N[C@H]1CSSC[C@@H](C(N)=O)NC(=O)[C@H](CCCCN)NC(=O)[C@H](CCCCN)NC(=O)[C@H](Cc2ccc(O)cc2)NC(=O)[C@H](Cc2c[nH]c3ccccc23)NC(=O)[C@H](Cc2ccccc2)NC(=O)[C@H](Cc2c[nH]c3ccccc23)NC(=O)[C@H](C)NC(=O)[C@H](Cc2ccccc2)NC(=O)CNC(=O)[C@H](Cc2ccccc2)NC(=O)CNC(=O)[C@H](CCC(N)=O)NC(=O)[C@H](CCCNC(=N)N)NC(=O)[C@H](Cc2c[nH]cn2)NC1=O [GMA5CA_V3] (H-GACHRQGFGFAWFWYKKC-NH2; disulfide 3-18)
- MIC (SFM + 2 mM CaCl2) (Botrytis cinerea): >12 µM
- MIC (SFM + 100 mM KCl) (Botrytis cinerea): >12 µM
- MIC (SFM + 100 mM NaCl) (Botrytis cinerea): >12 µM
- MIC SFM (Botrytis cinerea): 3 µM (≈ 6.57 µg/mL)

Compound: C[C@H](NC(=O)CN)C(=O)N[C@H]1CSSC[C@@H](C(N)=O)NC(=O)[C@H](CCCCN)NC(=O)[C@H](CCCCN)NC(=O)[C@H](Cc2ccc(O)cc2)NC(=O)[C@H](Cc2ccccc2)NC(=O)[C@H](Cc2ccccc2)NC(=O)[C@H](Cc2ccccc2)NC(=O)[C@H](C)NC(=O)[C@H](Cc2ccccc2)NC(=O)CNC(=O)[C@H](Cc2ccccc2)NC(=O)CNC(=O)[C@H](CCC(N)=O)NC(=O)[C@H](CCCNC(=N)N)NC(=O)[C@H](Cc2c[nH]cn2)NC1=O [GMA5CA_V4] (H-GACHRQGFGFAFFFYKKC-NH2; disulfide 3-18)
- MIC (SFM + 2 mM CaCl2) (Botrytis cinerea): >12 µM
- MIC (SFM + 100 mM KCl) (Botrytis cinerea): >12 µM
- MIC (SFM + 100 mM NaCl) (Botrytis cinerea): >12 µM
- MIC SFM (Botrytis cinerea): 3 µM (≈ 6.33 µg/mL)

Compound: CC(C)C[C@@H]1NC(=O)[C@@H](NC(=O)[C@H](C)NC(=O)CN)CSSC[C@@H](C(=O)N[C@@H](Cc2ccc(O)cc2)C(N)=O)NC(=O)[C@H](Cc2c[nH]cn2)NC(=O)[C@H](CCCNC(=N)N)NC(=O)[C@H](Cc2ccc(O)cc2)NC(=O)[C@H](Cc2ccc(O)cc2)NC(=O)[C@H](Cc2c[nH]c3ccccc23)NC(=O)[C@H](Cc2ccccc2)NC(=O)[C@H](Cc2c[nH]c3ccccc23)NC(=O)CNC(=O)[C@H](Cc2ccc(O)cc2)NC(=O)[C@H](Cc2c[nH]cn2)NC(=O)[C@H](CCCCN)NC(=O)[C@H](CO)NC(=O)[C@H](Cc2c[nH]cn2)NC(=O)[C@H](CCCNC(=N)N)NC(=O)[C@H](CC(N)=O)NC(=O)[C@H](CCCCN)NC1=O [GMAOe1C_V3] (H-GACLKNRHSKHYGWFWYYRHCY-NH2; disulfide 3-21)
- reducing the symptoms of gray mold, comparison of peptides (B. cinerea [1]; peptide at 1.5 μM): more effective than GMAOe1C_V4 or GMAOe1C_WT
- gray mold symptoms (B. cinerea [1]; peptide at 3 μM and 6 μM): completely abrogated gray mold symptoms
- MIC (SFM + 2 mM CaCl2) (Botrytis cinerea): 3 to 6 µM
- MIC (SFM + 100 mM KCl) (Botrytis cinerea): 6 to 12 µM
- MIC (SFM + 100 mM NaCl) (Botrytis cinerea): 2 to 3 µM
- MIC SFM (Botrytis cinerea): 1.5 µM (≈ 4.31 µg/mL)

Compound: CC(C)C[C@@H]1NC(=O)[C@@H](NC(=O)[C@H](C)NC(=O)CN)CSSC[C@@H](C(=O)N[C@@H](Cc2ccc(O)cc2)C(N)=O)NC(=O)[C@H](Cc2c[nH]cn2)NC(=O)[C@H](CCCNC(=N)N)NC(=O)[C@H](Cc2ccc(O)cc2)NC(=O)[C@H](Cc2ccc(O)cc2)NC(=O)[C@H](Cc2c[nH]c3ccccc23)NC(=O)[C@H](Cc2ccccc2)NC(=O)[C@H](Cc2ccccc2)NC(=O)CNC(=O)[C@H](Cc2ccc(O)cc2)NC(=O)[C@H](Cc2c[nH]cn2)NC(=O)[C@H](CCCCN)NC(=O)[C@H](CO)NC(=O)[C@H](Cc2c[nH]cn2)NC(=O)[C@H](CCCNC(=N)N)NC(=O)[C@H](CC(N)=O)NC(=O)[C@H](CCCCN)NC1=O [GMAOe1C_V4] (H-GACLKNRHSKHYGFFWYYRHCY-NH2; disulfide 3-21)
- gray mold symptoms (B. cinerea [1]; peptide at 3 μM and 6 μM): completely abrogated gray mold symptoms
- MIC (SFM + 2 mM CaCl2) (Botrytis cinerea): 6 to 12 µM
- MIC (SFM + 100 mM KCl) (Botrytis cinerea): 6 to 12 µM
- MIC (SFM + 100 mM NaCl) (Botrytis cinerea): 6 µM
- MIC SFM (Botrytis cinerea): 1.5 µM (≈ 4.25 µg/mL)

Compound: CC(C)C[C@H](NC(=O)[C@H](CS)NC(=O)[C@H](C)NC(=O)CN)C(=O)N[C@@H](CCCCN)C(=O)N[C@@H](CC(N)=O)C(=O)N[C@@H](CCCNC(=N)N)C(=O)N[C@@H](Cc1c[nH]cn1)C(=O)N[C@@H](CO)C(=O)N[C@@H](CCCCN)C(=O)N[C@@H](Cc1c[nH]cn1)C(=O)N[C@@H](Cc1ccc(O)cc1)C(=O)NCC(=O)N[C@@H](CS)C(=O)N[C@@H](Cc1ccc(O)cc1)C(=O)N[C@@H](CS)C(=O)N[C@@H](Cc1ccc(O)cc1)C(=O)N[C@@H](Cc1ccc(O)cc1)C(=O)N[C@@H](CCCNC(=N)N)C(=O)N[C@@H](Cc1c[nH]cn1)C(=O)N[C@@H](CS)C(=O)N[C@@H](Cc1ccc(O)cc1)C(N)=O [GMAOe1C_WT, reference compound] (H-GACLKNRHSKHYGCYCYYRHCY-NH2; N-terminus assumed)
- effectiveness in reducing gray mold disease symptoms (B. cinerea [1]): only effective at 6 μM

Compound: GACLKNRHSKHYGWFWYYRHCY-NH2 (disulfide 3-21 (inferred)) [GMAOe1C_V2]
- gray mold symptoms (B. cinerea [1]; peptide at 3 μM and 6 μM): completely abrogated gray mold symptoms
